From US12594258B2, “Inhibitors of MHC-I Nef downmodulation for treating HIV” (priority 2019, dated 2026)

Legend:
[1] = test system: HIV Nef; experiment: Nef activity in HIV-infected CD4+ T cells treated with plasma from CMA-injected mice; type: cell-based; conditions: plasma 30 minutes after injection, diluted 1:20
Method: FIG. 8F is a summary graph of flow cytometric data from experiments as in FIG. 1. Blood plasma was isolated from mice 30 minutes after injection with CMA, and CMA concentration was determined by mass spectrometry. Primary CD4+ T cells infected with HIV as in FIG. 1 were treated with 5% plasma from control mice spiked with known concentrations of CMA (standard curve) or with plasma from the CMA-injected mice diluted 1:20. Nef activity in cells receiving plasma from treated mice was compared to the standard curve based on the concentration of CMA as determined by mass spectrometry.
Mouse in vivo Assays. To further examine the tolerability of CMA, preliminary studies were performed in two groups of mice injected with different doses of CMA every other day for 18 days (FIG. 8A). […] In a separate experiment, plasma harvested from treated mice inhibited Nef in our in vitro assay (FIG. 8F). Taken together, these promising preliminary studies provide evidence that CMA is both efficacious and tolerable in vivo.

[2] = test system: HIV Nef
[3] = test system: lysosomal pH in human monocyte-derive macrophages (MDMs); experiment: Lysosensor Yellow/Blue dextran analysis of lysosomal pH in MDMs; type: cell-based; conditions: 1 hour, read-out: EC50 for lysosome neutralization
Method: To measure the lysosomal pH in human monocyte-derive macrophages (MDMs), MDMs adhered to 24-well plates were exposed to 500 μg/mL Lysosensor Yellow/Blue dextran, 10,000 MW (ThermoFisher, L22460) in R10 for 24 hours. MDMs were then exposed to plecomacrolides for 1 hour and harvested with 0.05% Trypsin-EDTA (Gibco 25300054). Cells were washed twice in FACS buffer, and analyzed on a MoFlo Astrios flow cytometer, with blue signal excited from a 354 nm laser and yellow signal excited from a 405 nm laser. A standard curve was generated by resuspending MDMs in equilibration buffers of known pH as previously described. The ratio of blue:yellow fluorescence intensity was calculated for each cell, the median blue:yellow ratio for the cell population for each condition was obtained, and the lysosomal pH in MDMs was calculated for each condition using the standard curve.
Lysosensor Yellow/Blue Dextran Analysis of Lysosomal pH. To measure the lysosomal pH in human MDMs, MDMs adhered to 24-well plates were exposed to 500 μg/mL Lysosensor Yellow/Blue dextran, 10,000 molecular weight (MVV) in R10 for 24 h. MDMs were then exposed to plecomacrolides for 1 h and harvested with 0.05% Trypsin-(ethylenedinitrilo)tetraacetic acid (EDTA). Cells were washed twice in FACS buffer, and analyzed on a flow cytometer, with blue signal excited from a 354-nm laser and yellow signal excited from a 405-nm laser. A standard curve was generated by resuspending MDMs in equilibration buffers of known pH. The ratio of blue:yellow fluorescence intensity was calculated for each cell, the median blue:yellow ratio for the cell population for each condition was obtained, and the lysosomal pH in MDMs was calculated for each condition using the standard curve.

## C/C=C/[C@H]1O[C@@](O)([C@@H](C)[C@H](O)[C@H](C)[C@H]2OC(=O)/C(OC)=C/C(C)=C/[C@@H](C)[C@@H](O)[C@@H](CC)[C@@H](O)[C@H](C)C/C(C)=C/C=C/[C@@H]2OC)C[C@@H](O[C@H]2C[C@@H](O)[C@H](OC(N)=O)[C@@H](C)O2)[C@@H]1C [CMA, concanamycin A]
[1]
  Nef inhibition by plasma harvested from treated mice: inhibited Nef
[2]; 2.5 nM and 0.5 nM
  restoration of CD4 to the cell surface of Nef-expressing cells: neither dose of CMA restored CD4
  restoration of cell-surface MHC-I in Nef-expressing cells: restored equally in both conditions
[2]; high dose (2.5 nM)
  Nef-mediated degradation of HLA-A2 and CD4 (Western blot): inhibited Nef-mediated degradation of both HLA-A2 and CD4
[2]; low dose (0.5 nM)
  degradation of CD4 (Western blot): did not prevent degradation of CD4
  degradation of MHC-I in Nef-expressing cells (Western blot): MHC-I was not degraded in Nef-expressing cells
[3]
  EC50: 12.7 nM
